Drawing on ChEMBL document CHEMBL1158620, “Synthesis and evaluation of novel alpha-amino cyclic boronates as inhibitors of HCV NS3 protease” (Bioorg Med Chem Lett, 2010), this text covers EC50, IC50 and Ki for 17 molecules.

One may read the EC50 as the concentration that produces a half-maximal response. A low value points to an effect from little substance. Broadly, the IC50 is the concentration that inhibits the measured activity by half. The term Ki denotes the equilibrium dissociation constant of an inhibitor or competing ligand from its target. Low values mean tighter binding, high ones weaker binding.

Some results are limits rather than exact numbers.

The test system of assay [1] is Hepatitis C virus. The assay is described as follows: Antiviral activity against HCV 1b by cell based replicon assay. Format: functional, organism-based, Hepacivirus hominis. The note with it: genotype 1b.
Assay [2] deals with Hepatitis C virus. The assay can be described thus: Inhibition of HCV 1a NS3/4A protease by FRET assay. Format: functional, Hepatitis C virus subtype 1a. The note with it: for IC50: Hepatitis C virus.
In assay [3] the test system is Hepatitis C virus. The assay can be described thus: Antiviral activity against HCV 1a by cell based replicon assay. Format: functional, organism-based, Hepacivirus hominis. The note with it: subtype 1a. Background: Replicon systems follow genome replication, usually without infectious particles.

For `CC(C)(C)[C@H](NC(=O)OC1CCCC1)C(=O)N1C[C@H](OC(=O)N2Cc3cccc(F)c3C2)C[C@H]1C(=O)N[C@@H]1B(O)OC[C@@H]1C1CC1`, the half-maximal effective concentration (EC50) in the assay on Hepatitis C virus [1] and in the assay with Hepatitis C virus [3] was above 1 µM each time. The same molecule yielded a half-inhibitory concentration (IC50) in the assay on Hepatitis C virus [2] of 0.2 µM.
On to `CC(C)(C)[C@@H](NC(=O)OC1CCCC1)C(=O)N1C[C@H](Oc2nccc3ccccc23)C[C@H]1C(=O)N[C@@H]1CCOB1O`, for which the EC50 in the assay on Hepatitis C virus [1] and in the assay with Hepatitis C virus [3] was above 1 µM in each case. The same molecule gave an IC50 with Hepatitis C virus [2] of 2.75 µM.
In the assay with Hepatitis C virus [2], `CCC[C@H](NC(=O)[C@@H]1[C@H]2CCC[C@H]2CN1C(=O)[C@@H](NC(=O)[C@@H](NC(=O)c1cnccn1)C1CCCCC1)C(C)(C)C)C(=O)C(=O)NC1CC1` gave a Ki of 0.044 µM and an IC50 of 0.1 µM.
For `CC(C)(C)[C@H](NC(=O)OC1CCCC1)C(=O)N1C[C@H](OC(=O)N2Cc3cccc(F)c3C2)C[C@H]1C(=O)N[C@H]1COB(O)C1`, the 50% effective concentration (EC50) with Hepatitis C virus [1] and in the assay with Hepatitis C virus [3] was above 1 µM each time. In addition, it took 8.5 µM to reach half-maximal inhibition in the assay on Hepatitis C virus [2] (IC50).
In the case of `CC(C)(C)[C@@H](NC(=O)OC1CCCC1)C(=O)N1C[C@H](Oc2nccc3ccccc23)C[C@H]1C(=O)N[C@@H]1B(O)OC[C@@H]1C1CC1`, the concentration giving a half-maximal response (EC50) in the assay with Hepatitis C virus [1] and in the assay with Hepatitis C virus [3] was above 1 µM in each case. The concentration for half-maximal inhibition (IC50) with Hepatitis C virus [2] came to 1.93 µM.
`CC(C)(C)[C@@H](NC(=O)OC1CCCC1)C(=O)N1C[C@H](Oc2nccc3ccccc23)C[C@H]1C(=O)N[C@H]1CCOB1O`: the EC50 in the assay on Hepatitis C virus [1] and with Hepatitis C virus [3] was above 1 µM in each case. In the assay on Hepatitis C virus [2], this molecule came in with a concentration for half-maximal inhibition (IC50) of 0.12 µM.
With `CC[C@H]1COB(O)[C@H]1NC(=O)[C@@H]1C[C@@H](OC(=O)N2Cc3cccc(F)c3C2)CN1C(=O)[C@@H](NC(=O)OC1CCCC1)C(C)(C)C`, the concentration for a half-maximal effect (EC50) with Hepatitis C virus [1] and in the assay on Hepatitis C virus [3] was above 1 µM each time. The concentration for half-maximal inhibition (IC50) in the assay with Hepatitis C virus [2] turned out to be 0.33 µM.
As to `CC(C)(C)[C@@H](NC(=O)OC1CCCC1)C(=O)N1C[C@H](Oc2nccc3ccccc23)C[C@H]1C(=O)NC1CCCOB1O` (stereo not given in full), the concentration giving a half-maximal response (EC50) in the assay on Hepatitis C virus [1] and in the assay on Hepatitis C virus [3] was above 1 µM throughout. This molecule also registered an IC50 in the assay with Hepatitis C virus [2] of 0.73 µM.
With `CC(C)(C)NC(=O)N[C@H](C(=O)N1C[C@H]2[C@@H]([C@H]1C(=O)N[C@H]1CCOB1O)C2(C)C)C(C)(C)C`, the EC50 with Hepatitis C virus [1] and in the assay with Hepatitis C virus [3] was above 1 µM throughout. In the assay on Hepatitis C virus [2], this molecule came in with a half-inhibitory concentration (IC50) of 0.34 µM.
Take `CC(C)(C)[C@H](NC(=O)OC1CCCC1)C(=O)N1C[C@H](OC(=O)N2Cc3cccc(F)c3C2)C[C@H]1C(=O)N[C@H]1CCOB1O`: the EC50 with Hepatitis C virus [1] and with Hepatitis C virus [3] was above 1 µM each time. For the same molecule, the IC50 in the assay on Hepatitis C virus [2] worked out at 0.023 µM.
`C[C@H]1C[C@H](NC(=O)[C@@H]2C[C@@H](OC(=O)N3Cc4cccc(F)c4C3)CN2C(=O)[C@@H](NC(=O)OC2CCCC2)C(C)(C)C)B(O)O1`: the EC50 in the assay with Hepatitis C virus [1] and with Hepatitis C virus [3] was above 1 µM throughout. The molecule further gave an IC50 with Hepatitis C virus [2] of 0.34 µM.
Consider `CC(C)(C)[C@H](NC(=O)OC1CCCC1)C(=O)N1C[C@H](OC(=O)N2Cc3cccc(F)c3C2)C[C@H]1C(=O)NC1CCCOB1O` (stereo not given in full), for which the EC50 in the assay with Hepatitis C virus [1] and in the assay on Hepatitis C virus [3] was above 1 µM in each case. Also, the IC50 in the assay with Hepatitis C virus [2] turned out to be 0.32 µM.
On to `CC(C)(C)[C@H](NC(=O)OC1CCCC1)C(=O)N1C[C@H](OC(=O)N2Cc3cccc(F)c3C2)C[C@H]1C(=O)NC1CCCCOB1O` (stereo not given in full), for which the concentration for a half-maximal effect (EC50) in the assay with Hepatitis C virus [1] and with Hepatitis C virus [3] was above 1 µM throughout. Moreover, the IC50 in the assay on Hepatitis C virus [2] stood at 0.024 µM.
On to `CC(C)(C)[C@@H](NC(=O)OC1CCCC1)C(=O)N1C[C@H](Oc2nccc3ccccc23)C[C@H]1C(=O)NC1CCCCOB1O` (stereo not given in full), for which the EC50 in the assay with Hepatitis C virus [1] and in the assay on Hepatitis C virus [3] was above 1 µM each time. Besides, the half-inhibitory concentration (IC50) in the assay with Hepatitis C virus [2] was determined as 0.17 µM.
Regarding `CC(C)(C)[C@H](NC(=O)OC1CCCC1)C(=O)N1C[C@H](OC(=O)N2Cc3cccc(F)c3C2)C[C@H]1C(=O)N[C@@H]1CCOB1O`, the 50% effective concentration (EC50) in the assay with Hepatitis C virus [1] and with Hepatitis C virus [3] was above 1 µM each time. Also, the midpoint of inhibition in the assay on Hepatitis C virus [2], the IC50, lay at 5.31 µM.
As for `C[C@H]1[C@H](C)OB(O)[C@H]1NC(=O)[C@@H]1C[C@@H](OC(=O)N2Cc3cccc(F)c3C2)CN1C(=O)[C@@H](NC(=O)OC1CCCC1)C(C)(C)C`, the half-maximal effective concentration (EC50) in the assay on Hepatitis C virus [1] and with Hepatitis C virus [3] was above 1 µM throughout. This molecule registered a half-inhibitory concentration (IC50) in the assay on Hepatitis C virus [2] of 4.47 µM.
For the molecule `CC(C)(C)[C@H](NC(=O)[C@@H](NC(=O)c1cnccn1)C1CCCCC1)C(=O)N1C[C@@H]2CCC[C@@H]2[C@H]1C(=O)N[C@H]1CCOB1O`, the concentration for a half-maximal effect (EC50) with Hepatitis C virus [1] and in the assay on Hepatitis C virus [3] was above 1 µM throughout. The same molecule had an IC50 with Hepatitis C virus [2] of 0.12 µM.
